Assay results from US20150258197A1, “EUTECTIC ISOMETHEPTENE MUCATE” (TONIX PHARMA HOLDINGS LIMITED, priority 2014, published 2015).

Tests used:
mice [1] = assay: Tail-flick Test; assay type: in vivo; details: mouse
From the text: (§1) Common mouse models for pain include the Formalin Test (Wheeler-Aceto, et al., Psychopharmacology, 104, 35-44, 1991), the Hot Plate Test (Eddy and Leimbach, J. Pharmacol. Exp. Ther., 107, 385-393, 1953), and the Tail-flick Test (D'Amour and Smith, J. Pharmacol. Exp. Ther., 1, 74-79, 1941). These methods detect analgesic activity of compositions of interest. In the Formalin Test, mice are given an intraplantar injection of 5% formalin into one posterior hindpaw to induce paw licking. Test compositions are given to the mice before treatment with formalin and the mice are evaluated and compared to a control group. In the Hot Plate Test, mice are placed onto a hot metal plate maintained at 54° C. and the latency to the first foot-lick is measured. As with the Formalin test, compositions of interest are given to the mice before the test and the mice are evaluated and compared to a control group. In the Tail-flick Test, a mouse's tail is heated by means of a thermal light source, and the latency before the animal withdraws its tail is measured. Test compositions are administered before the test, and compared with a vehicle control group. The analgesic activity of the compositions described herein can be identified using the mouse formalin, hot plate, and tail-flick tests.
A method for detecting analgesic activity followed that described by D'Amour and Smith (J. Pharmacol. Exp. Ther., 1, 74-79, 1941). The mouse's tail was heated by means of a thermal light source (20 volts). The latency before the animal withdraws its tail was measured (maximum: 15 seconds).
Ten mice were studied per group. The test was performed partially blind.
The test substances selected from (R)-isometheptene mucate, and (S)-isometheptene mucate were evaluated at three doses ([…]), administered p.o. 15 minutes before the test, and compared with a vehicle control group. […]
Data with the test substance were analyzed by comparing treated groups with vehicle control using ANOVA followed by post-hoc Dunnett's tests. Data with the reference substance were analyzed using unpaired Student's t tests.

mice [2] = assay: Formalin Test, late phase (licking score); assay type: in vivo; details: mouse, 5% formalin intraplantar, three doses p.o. 15 minutes before the test, 15-50 min after formalin
From the text: as §1, with “Test compositions are administered before the test, and compared with a vehicle control group. The analgesic activity of the compositions described herein can be identified using the mouse formalin, hot plate, and tail-flick tests.” left out
Mice were given an intraplantar injection of 5% formalin (25 μL) into one posterior hindpaw. […] Mice were briefly observed at one minute intervals between 15 and 50 minutes after the injection of formalin and the number of occasions that the mice were observed licking the injected paw was recorded. […]

[3] = DSC/XRPD of binary mixtures of isometheptene mucate and mannitol (eutectic formation); assay type: physicochemical; details: binary mixtures at different ratios
Description: Because mannitol is a common excipient in solid drug formulations, it was examined for compatibility with racemic isometheptene mucate and investigated using DSC and the interactions occurring were assessed. […] To confirm the formation of a eutectic and to characterize its physical properties, several binary mixtures at different ratios of racemic isometheptene mucate and excipient were prepared and analyzed by DSC and by XRPD. The eutectic formation improved the cohesion between the racemic isometheptene mucate and excipient particles and assured better physical linking between the two.
In order to confirm the eutectic formation and to characterize its physical properties, several binary mixtures at different ratios of racemic isometheptene mucate-excipient were prepared and analyzed by DSC and by X-ray powder diffraction (XRPD). […] For each DSC heating curve, the onset temperature and the enthalpy were evaluated both for the eutectic contribute and for the excess of component. The recorded values were plotted and a phase diagram between the two components was obtained with a characteristic profile of phase diagrams of eutectic mixtures. […]
Aliquots of racemic isometheptene mucate API and mannitol were weighed in the ratios described below and ground in an agate mortar, and the homogeneous mixtures subsequently analyzed. […]

Interaction with mannitol (eutectic vs adduct) [3]: only a physical eutectic formation
SMILES: CN[C@H](C)CCC=C(C)C [(R)-isometheptene mucate]
Tail-flick activity relative to morphine (mice [1]; 100 mg/kg p.o. versus morphine 32 mg/kg): activity similar to that of morphine
Tail flick latency compared to vehicle (mice [1]; thermal light source, three doses (10, 30, 100) p.o. 15 minutes before the test): longer tail flick latency times
Licking score compared to vehicle (mice [2]): reduction in licking score
